The results in this text go back to patent US12410153B2, “Compounds, compositions and methods” (Avalo Therapeutics, Inc., priority 2014, dated 2025).

Broadly, the ED50 is the dose that gives a 50% effect, or the effect in half of the subjects.

Holding throughout (format): in vivo, rat
Series [1] in a line: Acute depression model, forced swim test. Particulars: male, Sprague-Dawley, rat, plasma, read-out: plasma level at time of sampling. As to the method:
(§1) Young, adult, male Sprague-Dawley rats were randomly assigned across the treatment groups and were administered vehicle (0.5% MC/0.02% SLS), the reference compound desipramine (20 mg/kg; a tricyclic antidepressant; Sigma, Lot #078K1326) dissolved in sterile water, or crystalline Form II of Compound (I) (0.1, 0.3, 1, 3, 10, and 30 mg/kg) suspended in 0.5% MC/0.02% SLS, twice on Day 1 (after habituation; ˜24 h prior to test, and prior to dark cycle) and once on Day 2 (30 min pre-test for desipramine and 45 min pre-test for Form II and vehicle).
(§2) Each Forced Swim chamber was constructed of clear acrylic (height, 40 cm; diameter, 20.3 cm). Rats were subjected to a pre-dose swim test of one 15-min session in cylinders containing water at 23° C.±1° C., followed approximately 24 h later by the experimental 5-min session. The water level was 16 cm deep during habituation and 30 cm deep during the test. Immobility, climbing, and swimming behaviors were recorded every 5 s for a total of 60 counts per subject. When an animal was unable to maintain a posture with its nose above water, it was immediately removed from the water and eliminated from the study. Blood was collected at the completion of swim test procedures and plasma was analyzed for Form II concentrations.

For a further series, the system named is Sprague-Dawley rats. The series is described as follows: Acute depression model, forced swim test. The following applies: for RO: corresponding to plasma level; for ED50: Rattus norvegicus. Here is the method:
as §1, §2

The subject of the next series is rats. The series is described as follows: Respiratory effects in male rats, single oral doses. Here is the method:
Respiratory effects were investigated in rats and dogs. […] Mean Form II plasma concentration was approximately 30 μM (10600 ng/mL) at the end of infusion and approximately 4 μM (1250 ng/mL) at 60 min post-infusion.

Like-named read-outs stand apart in the source and are kept apart here.

Regarding `Cc1ccc(COC(=O)N2CC[C@H](CNc3ncccn3)[C@H](F)C2)cc1` [Form II, 4-methylbenzyl (3S, 4R)-3-fluoro-4-[(pyrimidin-2-ylamino)methyl] piperidine-1-carboxylate], the concentration at 50 min was roughly 15 nM in series [1] (0.1 mg/kg); roughly 120 nM in series [1] (0.3 mg/kg); roughly 390 nM in series [1] (1 mg/kg); roughly 1420 nM in series [1] (3 mg/kg); roughly 4700 nM in series [1] (10 mg/kg); roughly 14100 nM in series [1] (30 mg/kg). Also, the RO result in the series with Sprague-Dawley rats (0.1 mg/kg) is reported as “approximately 5%”; in the series on Sprague-Dawley rats (0.3 mg/kg), roughly 29%; with Sprague-Dawley rats (1 mg/kg) it was roughly 56%; with Sprague-Dawley rats (3 mg/kg) it was roughly 83%; with Sprague-Dawley rats (10 mg/kg), roughly 94%; in the series with Sprague-Dawley rats (30 mg/kg) it was roughly 98%. Further, the climbing behavior entry with Sprague-Dawley rats (1, 3, 10, and 30 mg/kg vs vehicle) is listed as “did not affect climbing behavior except at the dose of 3 mg/kg”. The immobility frequency result with Sprague-Dawley rats (1, 3, 10, and 30 mg/kg vs vehicle, P<0.001) is given as “significantly decreased”. For the same molecule, in the series with Sprague-Dawley rats (1, 3, 10, and 30 mg/kg vs vehicle, P<0.01 (P<0.05 for 10 mg/kg)), the swimming behavior result is “significantly increased”. For the same molecule, the ED50 with Sprague-Dawley rats (read-out: ED50 for decrease in immobility) is roughly 0.7 mg/kg; in the series on Sprague-Dawley rats (read-out: ED50 for increase in frequency of swimming), roughly 0.3 mg/kg. Besides, in the series with Sprague-Dawley rats (rat, in vivo), the “RO corresponding to ED50 for immobility” value was roughly 50%. Moreover, the “RO corresponding to ED50 for swimming” value with Sprague-Dawley rats (rat, in vivo) is roughly 30%. Besides, the “respiratory function (respiratory rate, tidal volume, minute ventilation, PenH)” value in the series with rats (15, 75, and 225 mg/kg oral) is on record as “respiratory stimulation”. Besides, the “respiratory function at end of 6-h monitoring period” value with rats (≥75 mg/kg oral) is listed as “remained altered”.
